This experiment has as its target T1, ecPGA (Escherichia coli penicillin G acylase) (Escherichia coli, UniProt P06875).
T1 construct: gene pac; mature alpha/beta heterodimer cut from one precursor (signal peptide and spacer removed); ecpga gene in pET-26b, E. coli BL21(DE3), purified after Kutzbach and Rauenbusch; His-tagged version made for melting analysis; WT source plasmid pKA18
Description: HPLC of AHL hydrolysis at […] nm, initial rates. In kind it is biochemical.

T1 sequence (P06875 27-235): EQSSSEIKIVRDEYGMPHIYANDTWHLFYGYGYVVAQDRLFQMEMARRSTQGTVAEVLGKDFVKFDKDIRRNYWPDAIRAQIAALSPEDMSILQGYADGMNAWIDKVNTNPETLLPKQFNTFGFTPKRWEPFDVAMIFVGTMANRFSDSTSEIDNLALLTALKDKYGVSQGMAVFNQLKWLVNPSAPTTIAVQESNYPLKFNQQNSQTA
T1 sequence (P06875 290-846): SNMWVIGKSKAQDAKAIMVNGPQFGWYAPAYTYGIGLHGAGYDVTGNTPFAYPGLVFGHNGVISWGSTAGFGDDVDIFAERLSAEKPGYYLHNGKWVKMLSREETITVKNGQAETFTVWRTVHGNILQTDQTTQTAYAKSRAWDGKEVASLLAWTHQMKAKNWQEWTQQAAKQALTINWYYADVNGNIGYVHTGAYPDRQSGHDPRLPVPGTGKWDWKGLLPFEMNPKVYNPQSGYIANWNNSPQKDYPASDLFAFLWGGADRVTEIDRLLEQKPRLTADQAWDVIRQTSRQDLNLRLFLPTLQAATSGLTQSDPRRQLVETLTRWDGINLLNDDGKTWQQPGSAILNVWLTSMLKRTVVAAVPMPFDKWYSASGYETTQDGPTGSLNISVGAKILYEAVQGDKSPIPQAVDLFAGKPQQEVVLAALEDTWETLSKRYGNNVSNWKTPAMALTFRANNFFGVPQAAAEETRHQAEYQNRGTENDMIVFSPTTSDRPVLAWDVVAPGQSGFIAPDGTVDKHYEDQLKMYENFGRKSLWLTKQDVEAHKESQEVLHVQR

`CCCCCCCC(=O)N[C@H]1CCOC1=O` [C08, N-octanoyl-L-homoserine lactone]: the Km (usually the substrate concentration at which the rate is half of its maximum) amounted to 700 ± 40 µM.

The values above are taken from doi:10.1101/2023.05.09.538545v2, “Engineering dynamic gates in binding pocket of penicillin G acylase to selectively degrade bacterial signaling molecules” (biorxiv, 2024).
